Common to all, as to format: cell-based
The target in test [1] is BaF3 cell lines stably transfected with kinase EGFR L858R/T790M (Homo sapiens, UniProt P00533, T790M/L858R, cells depend on it). The test can be described thus: Growth inhibition of BaF3 cell line stably transfected with kinase EGFR L858R/T790M (MTS). The note with it: 48 h, read-out: growth inhibitory activity IC50, L858R/T790M. In a few lines: (§1)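 Growth inhibition is measured by MTS conversion (OD 490 nm) following 48 h treatment at concentrations up to 10 μM, diluted by ⅓ over 8 points. Each condition runs in duplicate with 0.1% DMSO negative and cell-free blank controls.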

The target in test [2] is BaF3 cell lines stably transfected with kinase EGFR Del/T790M (Homo sapiens, UniProt P00533, T790M, cells depend on it, form not given). Briefly: Growth inhibition of BaF3 cell line stably transfected with kinase EGFR Del/T790M (MTS). The note with it: 48 h, read-out: growth inhibitory activity IC50, Del/T790M. In a few lines:
as §1

The target of test [3] is BaF3 cell lines stably transfected with kinase EGFR Del/T790M/C797S (Homo sapiens, UniProt P00533, T790M/C797S, cells depend on it, form not given). Briefly: Growth inhibition of BaF3 cell line stably transfected with kinase EGFR Del/T790M/C797S (MTS). The settings on record: 48 h, read-out: growth inhibitory activity IC50, Del/T790M/C797S. In a few lines:
as §1

For test [4], the target named is BaF3 cell lines stably transfected with kinase EGFR Del (Homo sapiens, UniProt P00533, cells depend on it, form not given). Briefly: Growth inhibition of BaF3 cell line stably transfected with kinase EGFR Del (MTS). The note with it: 48 h, read-out: growth inhibitory activity IC50, Del. In a few lines:
as §1

Test [5] deals with BaF3 cell lines stably transfected with kinase EGFR L858R/T790M/C797S (Homo sapiens, UniProt P00533, T790M/C797S/L858R, cells depend on it). Briefly: Growth inhibition of BaF3 cell line stably transfected with kinase EGFR L858R/T790M/C797S (MTS). The settings on record: 48 h, read-out: growth inhibitory activity IC50, L858R/T790M/C797S. In a few lines:
as §1

Test [6] has as its target BaF3 cell lines stably transfected with kinase EGFR L858R (Homo sapiens, UniProt P00533, L858R, cells depend on it). The test can be described thus: Growth inhibition of BaF3 cell line stably transfected with kinase EGFR L858R (MTS). The note with it: 48 h, read-out: growth inhibitory activity IC50, L858R. In a few lines: as §1

25 molecules from patent US12679822B2, “Alkenyl pyrimidine compound, preparation method therefor, and application thereof” (Hongyun Biotech Co., Ltd., priority 2020, dated 2026) can be followed below.

Sequence of BaF3 cell lines stably transfected with kinase EGFR L858R/T790M/C797S (P00533 whole entry T790M/C797S/L858R): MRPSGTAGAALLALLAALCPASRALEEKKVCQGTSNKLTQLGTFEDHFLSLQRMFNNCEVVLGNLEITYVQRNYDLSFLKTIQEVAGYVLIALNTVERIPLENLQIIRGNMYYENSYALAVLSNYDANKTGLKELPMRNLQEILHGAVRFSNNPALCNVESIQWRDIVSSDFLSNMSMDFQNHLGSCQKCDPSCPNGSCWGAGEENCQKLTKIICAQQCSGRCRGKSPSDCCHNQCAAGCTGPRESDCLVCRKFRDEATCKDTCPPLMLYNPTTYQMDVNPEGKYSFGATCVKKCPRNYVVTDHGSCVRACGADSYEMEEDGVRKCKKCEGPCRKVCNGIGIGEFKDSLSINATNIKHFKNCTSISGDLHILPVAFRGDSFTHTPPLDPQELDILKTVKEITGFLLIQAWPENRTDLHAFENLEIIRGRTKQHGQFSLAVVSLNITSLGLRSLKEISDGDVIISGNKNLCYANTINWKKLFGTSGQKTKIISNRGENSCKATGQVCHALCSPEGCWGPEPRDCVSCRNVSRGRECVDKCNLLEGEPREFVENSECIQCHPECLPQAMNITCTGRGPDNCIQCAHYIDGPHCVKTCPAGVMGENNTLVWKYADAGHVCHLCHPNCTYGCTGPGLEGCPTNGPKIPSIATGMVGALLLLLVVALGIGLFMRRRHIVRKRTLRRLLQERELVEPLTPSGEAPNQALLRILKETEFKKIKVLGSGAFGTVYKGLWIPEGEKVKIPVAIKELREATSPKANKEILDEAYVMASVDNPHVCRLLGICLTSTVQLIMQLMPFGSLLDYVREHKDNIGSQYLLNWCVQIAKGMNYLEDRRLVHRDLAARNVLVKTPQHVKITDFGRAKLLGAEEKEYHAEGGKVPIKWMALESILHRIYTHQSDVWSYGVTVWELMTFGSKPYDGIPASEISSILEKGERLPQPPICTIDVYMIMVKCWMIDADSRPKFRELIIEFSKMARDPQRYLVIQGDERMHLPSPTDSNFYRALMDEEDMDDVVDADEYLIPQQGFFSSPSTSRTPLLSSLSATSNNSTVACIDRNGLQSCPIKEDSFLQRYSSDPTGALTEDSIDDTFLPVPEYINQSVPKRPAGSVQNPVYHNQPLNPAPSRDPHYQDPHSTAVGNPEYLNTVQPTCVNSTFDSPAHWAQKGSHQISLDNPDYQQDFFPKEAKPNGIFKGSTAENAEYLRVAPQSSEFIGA
Sequence of BaF3 cell lines stably transfected with kinase EGFR L858R/T790M (P00533 whole entry T790M/L858R): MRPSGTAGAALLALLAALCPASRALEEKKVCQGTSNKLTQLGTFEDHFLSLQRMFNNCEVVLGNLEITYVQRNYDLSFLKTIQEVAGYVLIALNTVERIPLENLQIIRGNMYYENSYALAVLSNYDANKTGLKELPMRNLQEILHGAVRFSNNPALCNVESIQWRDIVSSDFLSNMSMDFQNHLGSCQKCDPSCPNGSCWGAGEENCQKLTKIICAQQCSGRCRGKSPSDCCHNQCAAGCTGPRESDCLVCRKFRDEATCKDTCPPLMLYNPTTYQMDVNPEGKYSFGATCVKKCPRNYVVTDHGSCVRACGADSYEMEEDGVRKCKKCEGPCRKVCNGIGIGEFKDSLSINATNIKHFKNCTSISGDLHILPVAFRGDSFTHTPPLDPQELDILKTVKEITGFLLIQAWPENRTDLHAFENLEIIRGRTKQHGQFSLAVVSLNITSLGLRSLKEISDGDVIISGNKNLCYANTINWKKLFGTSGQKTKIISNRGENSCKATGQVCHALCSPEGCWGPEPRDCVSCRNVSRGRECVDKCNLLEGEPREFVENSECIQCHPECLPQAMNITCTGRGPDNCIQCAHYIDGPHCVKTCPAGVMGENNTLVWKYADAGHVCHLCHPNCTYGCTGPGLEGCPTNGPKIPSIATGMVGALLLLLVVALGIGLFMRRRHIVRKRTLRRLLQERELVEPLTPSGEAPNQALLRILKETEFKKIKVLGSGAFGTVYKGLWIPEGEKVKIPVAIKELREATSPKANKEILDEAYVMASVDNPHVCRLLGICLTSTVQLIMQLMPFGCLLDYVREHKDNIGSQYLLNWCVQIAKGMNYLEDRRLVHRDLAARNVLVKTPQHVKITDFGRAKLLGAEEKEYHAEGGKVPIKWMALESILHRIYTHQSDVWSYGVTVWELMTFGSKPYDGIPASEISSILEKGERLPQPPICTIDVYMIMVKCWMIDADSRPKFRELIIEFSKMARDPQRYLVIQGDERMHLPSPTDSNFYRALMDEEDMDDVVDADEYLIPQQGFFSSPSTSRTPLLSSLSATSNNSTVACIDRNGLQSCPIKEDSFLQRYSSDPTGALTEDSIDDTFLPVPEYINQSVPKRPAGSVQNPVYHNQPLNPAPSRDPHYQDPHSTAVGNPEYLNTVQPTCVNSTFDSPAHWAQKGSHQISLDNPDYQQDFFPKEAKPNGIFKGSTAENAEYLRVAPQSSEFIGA
Sequence of BaF3 cell lines stably transfected with kinase EGFR Del/T790M (P00533 with tags, fused parts or gaps DEL746-750/T790M, form open): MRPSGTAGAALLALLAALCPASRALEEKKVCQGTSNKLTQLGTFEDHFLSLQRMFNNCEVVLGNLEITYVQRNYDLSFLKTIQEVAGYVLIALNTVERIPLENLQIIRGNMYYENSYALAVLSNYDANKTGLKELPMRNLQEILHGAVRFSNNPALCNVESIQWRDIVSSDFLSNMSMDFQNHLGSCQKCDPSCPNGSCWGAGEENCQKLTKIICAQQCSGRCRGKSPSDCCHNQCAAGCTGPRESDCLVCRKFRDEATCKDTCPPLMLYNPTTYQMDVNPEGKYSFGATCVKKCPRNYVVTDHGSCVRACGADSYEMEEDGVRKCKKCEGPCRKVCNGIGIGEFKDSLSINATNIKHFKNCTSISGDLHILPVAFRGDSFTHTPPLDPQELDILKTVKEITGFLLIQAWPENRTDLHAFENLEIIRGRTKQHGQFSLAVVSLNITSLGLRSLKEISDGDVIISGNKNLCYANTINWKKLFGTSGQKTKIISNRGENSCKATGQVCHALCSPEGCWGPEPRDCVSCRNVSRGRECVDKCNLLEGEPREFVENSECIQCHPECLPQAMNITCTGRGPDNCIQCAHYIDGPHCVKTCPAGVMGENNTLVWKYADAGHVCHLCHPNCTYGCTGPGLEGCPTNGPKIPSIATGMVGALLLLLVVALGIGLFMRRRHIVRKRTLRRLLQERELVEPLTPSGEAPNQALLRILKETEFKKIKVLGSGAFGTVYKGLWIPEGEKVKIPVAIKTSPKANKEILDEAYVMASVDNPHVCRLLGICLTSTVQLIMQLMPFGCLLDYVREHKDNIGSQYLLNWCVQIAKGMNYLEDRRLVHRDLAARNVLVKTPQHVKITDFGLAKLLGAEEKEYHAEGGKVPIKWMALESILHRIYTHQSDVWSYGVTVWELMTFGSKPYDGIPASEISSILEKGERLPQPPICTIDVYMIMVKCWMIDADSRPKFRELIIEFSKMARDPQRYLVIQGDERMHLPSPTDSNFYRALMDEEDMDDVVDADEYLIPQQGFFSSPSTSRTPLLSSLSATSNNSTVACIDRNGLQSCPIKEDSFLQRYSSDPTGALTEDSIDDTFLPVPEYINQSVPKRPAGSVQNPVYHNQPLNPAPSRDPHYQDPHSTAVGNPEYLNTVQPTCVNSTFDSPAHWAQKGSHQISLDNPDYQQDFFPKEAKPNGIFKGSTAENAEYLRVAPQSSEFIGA
Sequence of BaF3 cell lines stably transfected with kinase EGFR Del/T790M/C797S (P00533 with tags, fused parts or gaps DEL746-750/T790M/C797S, form open): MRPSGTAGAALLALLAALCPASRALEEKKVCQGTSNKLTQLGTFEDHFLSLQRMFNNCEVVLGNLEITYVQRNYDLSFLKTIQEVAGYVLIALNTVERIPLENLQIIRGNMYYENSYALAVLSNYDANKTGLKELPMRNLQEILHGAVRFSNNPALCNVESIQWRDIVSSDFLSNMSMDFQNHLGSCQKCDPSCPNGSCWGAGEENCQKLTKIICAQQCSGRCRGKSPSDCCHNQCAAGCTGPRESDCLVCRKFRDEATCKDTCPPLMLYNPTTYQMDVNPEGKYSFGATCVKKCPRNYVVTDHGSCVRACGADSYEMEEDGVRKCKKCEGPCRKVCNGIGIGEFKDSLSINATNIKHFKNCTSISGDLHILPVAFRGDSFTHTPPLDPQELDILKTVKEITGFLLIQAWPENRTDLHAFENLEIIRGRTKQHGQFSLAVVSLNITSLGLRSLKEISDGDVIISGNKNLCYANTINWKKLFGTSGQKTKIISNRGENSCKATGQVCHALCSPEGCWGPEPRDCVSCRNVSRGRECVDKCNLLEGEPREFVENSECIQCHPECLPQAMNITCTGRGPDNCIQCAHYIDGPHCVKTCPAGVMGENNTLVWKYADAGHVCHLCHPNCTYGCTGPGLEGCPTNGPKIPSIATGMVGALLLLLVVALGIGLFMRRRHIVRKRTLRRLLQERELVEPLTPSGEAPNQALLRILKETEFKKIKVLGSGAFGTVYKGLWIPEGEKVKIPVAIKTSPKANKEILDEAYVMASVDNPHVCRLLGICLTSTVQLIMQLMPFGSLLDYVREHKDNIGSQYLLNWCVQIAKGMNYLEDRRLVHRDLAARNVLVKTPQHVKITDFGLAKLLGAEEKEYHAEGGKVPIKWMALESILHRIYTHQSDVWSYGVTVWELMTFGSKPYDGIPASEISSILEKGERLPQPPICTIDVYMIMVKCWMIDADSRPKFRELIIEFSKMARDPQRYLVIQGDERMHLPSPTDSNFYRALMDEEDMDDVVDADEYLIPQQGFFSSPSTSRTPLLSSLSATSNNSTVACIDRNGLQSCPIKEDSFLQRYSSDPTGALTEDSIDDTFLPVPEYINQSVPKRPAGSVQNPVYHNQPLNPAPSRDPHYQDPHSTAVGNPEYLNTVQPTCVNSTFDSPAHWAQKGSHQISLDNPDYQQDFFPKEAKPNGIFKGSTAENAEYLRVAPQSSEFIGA

With `C=Cc1cnc(Nc2cc3c(cc2F)CCN(C)C3)nc1Nc1ccc2nccnc2c1N(C)S(C)(=O)=O` [II-74], the GI50 in test [1] was 50 to 500 nM; in test [2] it was 50 to 500 nM; in test [3], 50 to 500 nM; in test [4], 50 to 500 nM; in test [5], 50 to 500 nM; in test [6], at most 50 nM.
Regarding `C=Cc1cnc(Nc2cc3c(cc2OC(F)(F)F)CCN(C)C3)nc1Nc1ccc2nccnc2c1N(C)S(C)(=O)=O` [II-76], the GI50 in test [1] lay within 50 to 500 nM; in test [2], 500 to 2500 nM; in test [3], 500 to 2500 nM; in test [4], 50 to 500 nM; in test [5], 50 to 500 nM; in test [6], 50 to 500 nM.
With `C=Cc1cnc(Nc2ccc3c(c2)CN(C)CC3)nc1Nc1ccc2nccnc2c1N(C)S(C)(=O)=O` [II-77], the GI50 in test [1] is at most 50 nM; in test [2], at most 50 nM; in test [3], 50 to 500 nM; in test [4] it was at most 50 nM; in test [5], at most 50 nM; in test [6] it was at most 50 nM.
With `C=Cc1cnc(Nc2ccc3c(c2)C(C)CN(C)CC3)nc1Nc1ccc2nccnc2c1N(C)S(C)(=O)=O` (stereo not drawn) [II-78], the GI50 in test [1] is at most 50 nM; in test [2] it was 50 to 500 nM; in test [3], 50 to 500 nM; in test [4], at most 50 nM; in test [5], at most 50 nM; in test [6] it was at most 50 nM.
As to `C=Cc1cnc(Nc2cc(CC)c(N3CCC(N4CCN(C)CC4)CC3)cc2OC)nc1Nc1ccc2nccnc2c1S(C)(=O)=O` [III-1], the GI50 in test [1] was in the range of 50 to 500 nM; in test [2], 50 to 500 nM; in test [3] it was 500 to 2500 nM; in test [4], 50 to 500 nM; in test [5], 500 to 2500 nM; in test [6] it was 500 to 2500 nM.
With `C=Cc1cnc(Nc2cc(CC)c(N3CCC(N(C)C)CC3)cc2OC)nc1Nc1ccc2nccnc2c1S(C)(=O)=O` [III-2], the GI50 in test [1] was in the range of 50 to 500 nM; in test [2] it was 50 to 500 nM; in test [3], 500 to 2500 nM; in test [4], 500 to 2500 nM; in test [5] it was 50 to 500 nM; in test [6] it was 500 to 2500 nM.
`C=Cc1cnc(Nc2cc(CC)c(N3CCC(N(C)C)C3)cc2OC)nc1Nc1ccc2nccnc2c1S(C)(=O)=O` (stereo not drawn) [III-3]: the GI50 in test [1] was in the range of 50 to 500 nM; in test [2], 500 to 2500 nM; in test [3], 500 to 2500 nM; in test [4] it was 500 to 2500 nM; in test [5], 500 to 2500 nM; in test [6] it was 500 to 2500 nM.
For `C=Cc1cnc(Nc2cc(CC)c(N3CCN(C)CC3)cc2OC)nc1Nc1ccc2nccnc2c1S(C)(=O)=O` [III-4], the GI50 was in the range of 50 to 500 nM in test [1]; 500 to 2500 nM in test [2]; 500 to 2500 nM in test [3]; 500 to 2500 nM in test [4]; 500 to 2500 nM in test [5]; 500 to 2500 nM in test [6].
As to `C=Cc1cnc(Nc2cc(CC)c(N3CCC(N4CCN(C)CC4)CC3)cc2OC(F)(F)F)nc1Nc1ccc2nccnc2c1S(C)(=O)=O` [III-5], the GI50 in test [1] is 50 to 500 nM; in test [2], 500 to 2500 nM; in test [3] it was 500 to 2500 nM; in test [4] it was 500 to 2500 nM; in test [5], 500 to 2500 nM; in test [6] it was 500 to 2500 nM.
Regarding `C=Cc1cnc(Nc2cc(CC)c(N3CCC(N4CCN(C)CC4)CC3)cc2OC)nc1Nc1ccc2nccnc2c1S(=O)(=O)C(C)C` [III-6], the GI50 in test [1], in test [2], in test [3], in test [4], in test [5] and in test [6] was 50 to 500 nM in each case.
Turning to `C=Cc1cnc(Nc2cc(C)c(N3CCC(N4CCN(C)CC4)CC3)cc2OC)nc1Nc1ccc2nccnc2c1S(C)(=O)=O` [III-9], the GI50 in test [1] is 50 to 500 nM; in test [2] it was 500 to 2500 nM; in test [3], 500 to 2500 nM; in test [4], 500 to 2500 nM; in test [5], 500 to 2500 nM; in test [6], 500 to 2500 nM.
With `C=Cc1cnc(Nc2cc(CC)c(N3CCC(N4CCN(C)CC4)CC3)nc2OC)nc1Nc1ccc2nccnc2c1S(C)(=O)=O` [III-10], the GI50 in test [1] is 50 to 500 nM; in test [2], 500 to 2500 nM; in test [3] it was 500 to 2500 nM; in test [4], 500 to 2500 nM; in test [5], 500 to 2500 nM; in test [6] it was 500 to 2500 nM.
For the molecule `C=Cc1cnc(Nc2cc(C(C)C)c(N3CCC(N4CCN(C)CC4)CC3)cc2OC)nc1Nc1ccc2nccnc2c1S(C)(=O)=O` [III-11], the GI50 is 50 to 500 nM in test [1]; 500 to 2500 nM in test [2]; 500 to 2500 nM in test [3]; 500 to 2500 nM in test [4]; 500 to 2500 nM in test [5]; 500 to 2500 nM in test [6].
For `C=Cc1cnc(Nc2cc(C3CC3)c(N3CCC(N4CCN(C)CC4)CC3)cc2OC)nc1Nc1ccc2nccnc2c1S(C)(=O)=O` [III-12], the GI50 fell in the range of 50 to 500 nM in test [1]; 50 to 500 nM in test [2]; 500 to 2500 nM in test [3]; 50 to 500 nM in test [4]; 50 to 500 nM in test [5]; 500 to 2500 nM in test [6].
As to `C=Cc1cnc(Nc2cc(CC3CC3)c(N3CCC(N4CCN(C)CC4)CC3)cc2OC)nc1Nc1ccc2nccnc2c1S(C)(=O)=O` [III-13], the GI50 was 50 to 500 nM in test [1]; 50 to 500 nM in test [2]; 500 to 2500 nM in test [3]; 50 to 500 nM in test [4]; 500 to 2500 nM in test [5]; 500 to 2500 nM in test [6].
Turning to `C=Cc1cnc(Nc2ccc(N3CCC(N4CCN(C)CC4)CC3)c(CC)c2)nc1Nc1ccc2nccnc2c1S(C)(=O)=O` [III-14], the GI50 fell in the range of 50 to 500 nM in test [1]; 50 to 500 nM in test [2]; 500 to 2500 nM in test [3]; 50 to 500 nM in test [4]; 50 to 500 nM in test [5]; 50 to 500 nM in test [6].
For `C=Cc1cnc(Nc2cc(F)c(N3CCC(N4CCN(C)CC4)CC3)c(F)c2)nc1Nc1ccc2nccnc2c1S(C)(=O)=O` [III-16], the GI50 in test [1] lay within 500 to 2500 nM; in test [2] it was 50 to 500 nM; in test [3], 500 to 2500 nM; in test [4], 500 to 2500 nM; in test [5], 500 to 2500 nM; in test [6], 500 to 2500 nM.
Consider `C=Cc1cnc(Nc2ccc(N3CCC(N4CCN(C)CC4)CC3)cc2OC)nc1Nc1ccc2nccnc2c1S(=O)(=O)C(C)C` [III-18], for which the GI50 in test [1] lay in the range of 50 to 500 nM; in test [2], 500 to 2500 nM; in test [3], 500 to 2500 nM; in test [4] it was 500 to 2500 nM; in test [5], 500 to 2500 nM; in test [6], 50 to 500 nM.
`C=Cc1cnc(Nc2cc(C)c(N3CCC(N4CCN(C)CC4)CC3)cc2OC)nc1Nc1ccc2nccnc2c1S(=O)(=O)C(C)C` [III-19]: the GI50 in test [1] lay in the range of 50 to 500 nM; in test [2], 50 to 500 nM; in test [3] it was 500 to 2500 nM; in test [4], 50 to 500 nM; in test [5], 50 to 500 nM; in test [6] it was 50 to 500 nM.
Take `C=Cc1cnc(Nc2cc(C(C)C)c(N3CCC(N4CCN(C)CC4)CC3)cc2OC)nc1Nc1ccc2nccnc2c1S(=O)(=O)C(C)C` [III-20]: the GI50 in test [1] was in the range of 50 to 500 nM; in test [2], 500 to 2500 nM; in test [3] it was 500 to 2500 nM; in test [4], 500 to 2500 nM; in test [5] it was 500 to 2500 nM; in test [6], 50 to 500 nM.
Turning to `C=Cc1cnc(Nc2cc(C3CC3)c(N3CCC(N4CCN(C)CC4)CC3)cc2OC)nc1Nc1ccc2nccnc2c1S(=O)(=O)C(C)C` [III-21], the GI50 in test [1], in test [2], in test [3], in test [4], in test [5] and in test [6] was 50 to 500 nM each time.
Regarding `C=Cc1cnc(Nc2ccc(N3CCC(N4CCN(C)CC4)CC3)cc2OC)nc1Nc1ccc2nccnc2c1S(=O)(=O)NC` [IV-1], the GI50 in test [1] was in the range of 50 to 500 nM; in test [2] it was 500 to 2500 nM; in test [3], 500 to 2500 nM; in test [4] it was 500 to 2500 nM; in test [5], 500 to 2500 nM; in test [6], 500 to 2500 nM.
For `C=Cc1cnc(Nc2cc(C)c(N3CCC(N4CCN(C)CC4)CC3)cc2OC)nc1Nc1ccc2nccnc2c1S(=O)(=O)NC` [IV-2], the GI50 in test [1], in test [2], in test [3], in test [4], in test [5] and in test [6] was 50 to 500 nM throughout.
Turning to `C=Cc1cnc(Nc2cc(CC)c(N3CCC(N4CCN(C)CC4)CC3)cc2OC)nc1Nc1ccc2nccnc2c1S(=O)(=O)NC` [IV-3], the GI50 in test [1], in test [2], in test [3], in test [4], in test [5] and in test [6] was 50 to 500 nM each time.
With `C=Cc1cnc(Nc2cc(CC)c(N3CCC(N4CCN(C)CC4)CC3)nc2OC)nc1Nc1ccc2nccnc2c1S(=O)(=O)NC` [IV-4], the GI50 in test [1] is 50 to 500 nM; in test [2], 50 to 500 nM; in test [3], 500 to 2500 nM; in test [4], 500 to 2500 nM; in test [5], 50 to 500 nM; in test [6], 500 to 2500 nM.
